Legend:
MDA-MB-468 cells [1] = test: 100 internalization assay in MDA-MB-468 cells; type: cell-based
Method: (§1) Cells were plated on uncoated 18-mm round coverslips in 12 well plates at 150,000 cells/well and were allowed to adhere overnight. 100, in a stock solution in DMSO, was diluted in serum-free/phenol red-free DMEM. After drug incubation, the cells were washed twice with ice-cold PBS, fixed with 1% PFA in PBS for 10 min, and stained with 5 μg/mL wheat germ agglutinin-488 (WGA-488, Invitrogen, Waltham, Mass.) and either Hoescht or DAPI. The coverslips were washed and mounted onto microscope slides using FluorSave mounting reagent (Millipore, Darmstadt, Germany). Slides were imaged on a Leica SP5 confocal microscope.
(§2) Images were analyzed for fluorescence and puncta using ImageJ software using a non-biased, high-throughput macro. In brief, cells were selected using an expanded selection from the DAPI channel. The regions of interest were then masked, a watershed filter was applied to split adjacent cells into separate cells, and the regions of interest were applied to the 100 channel to measure fluorescence and puncta. High resolution confocal stacks were deconvolved with Hyugen's Deconvolution Software or AiryScan.
To analyze the internalization of eHsp90 in transformed cells, the 4T1 cell model was utilized.

[2] = tested on: MMTV-neu spontaneous mammary tumor; test: Cryo-imaging and histology of MMTV-neu spontaneous mammary tumor mice; type: in vivo, mouse
Excerpt: […] Slices of 5-μm thickness were cut and placed on slides to dry overnight. Slides were then deparaffinized and either H&E stained or rehydrated and stained with DAPI before mounting. Slides were imaged at 20× magnification on a Zeiss Axio Imager widefield fluorescence microscope equipped with a color camera.
To investigate the tumor specificity and eHsp90 internalization in a more relevant model of human breast cancer, the MMTV-neu spontaneous mammary tumor mouse model was used (FIGS. 4c-d). […] Following cryoslicing, each 40 μm slice was imaged for fluorescence and brightfield. […] Previous studies have reported the autofluorescence of Leydig cells in the testes due to the presence of a lipophilic pigment.

MDA-MB-468 cells [3] = test: Confocal imaging of eHsp90 puncta in probe-treated tumor cells; type: cell-based
Method: as §1, §2
Using a standard fluorescence curve, the concentration within the puncta of 100 was estimated to be 4.66±0.05 μM. […]

MDA-MB-468 flank tumors = test: Whole mouse 3D cryo-imaging of probe biodistribution, MDA-MB-468 flank xenograft; type: in vivo
Method: All protocols involving the use of mice were approved beforehand by the IACUC at Duke University and were strictly adhered to throughout the studies. A wild-type 3-month-old male SCID mouse with a right flank xenograft with MDA-MB-468 cells was injected with 25 nmol 100 through the tail vein. Six hours later, the mouse was euthanized, prepared according to the instructions from BioInVision, Inc. (Cleveland, Ohio, USA) and shipped for Cryo-Imaging and reconstruction. An EGFP/mCherry dual band filter set was used for imaging (#59022; Chroma Technology Corporation, Bellows Falls, Vt., USA).
The majority of cells are fully differentiated and not actively dividing, whereas some subpopulations of cells are constantly undergoing division and growth, such as the […] layer lining the intestinal tract. To determine if non-tumor cells express/internalize eHsp90, 3D cyrosectioning of mice bearing MDA-MB-468 flank tumors 6 hours post 100 injection was carried out. Probe uptake into the tumor in the live animal was first confirmed in a Licor instrument.
(§3) Whereas fluorophore-tethered probes are useful for detecting and following uptake of tumors on the skin surface in live animals, even with the most sensitive of far red or nIR detectors, due to light scattering, detection of emitted fluorescent light is limited to a depth of few mm of tissue. However, when used in conjunction with live imaging, 3D cryosectioning enables the biodistribution of fluorescent probes to the histological level throughout the body. Following sacrifice the animal was cryopreserved in liquid N2, then longitudinal cryosectioned at 40-μm slices. Each slice was imaged for fluorescence with an mCherry band filter (excitation 550-590 nm, emission 600-670 nm) as well as bright field (all slice image data can be down loaded at https://goo.gl/Z30dXJ). The images were reconstructed to create a 3D fluorescence and bright field images of the entire mouse anatomy (FIG. 4a). This process allowed for the first time a detailed examination of the complete biodistribution of 100 at the histological level in every organ. A control non-treated mouse was also imaged using an EGFP-mCherry dual band filter set. The limits of detection of 100 by fluorescence are estimated to be at <1-2 μmol. In a parallel study, an MS analysis was conducted on specific fluorescent tissues to confirm the presence of 100 parent ion (m/z=660.0 [M+2]2+).

[4] = MS analysis of tissues and urine for 100 parent ion after injection; type: in vivo, mouse
Excerpt: as §3

In the case of `Cc1nn(-c2ccc(C(=O)N(C)C)c(NCCCOCCOCCOCCOCCOCCCNCc3ccc(C(=C\C=C4\N(CCCCS(=O)(=O)O)c5ccccc5C4(C)C)/C=C/C4=[N+](CCCCS(=O)(=O)[O-])c5ccccc5C4(C)C)cc3)c2)c2c1C(=O)CC(C)(C)C2` [Compound 101, 4-(2-((1E,3Z)-5-((E)-3,3-dimethyl-1-(4-sulfobutyl)indolin-2-ylidene)-3-(4-(21-((2-(dimethylcarbamoyl)-5-(3,6,6-trimethyl-4-oxo-4,5,6,7-tetrahydro-1H-indazol-1-yl)phenyl)amino)-6,9,12,15,18-pentaoxa-2-azahenicosyl)phenyl)penta-1,3-dien-1-yl)-3,3-dimethyl-3H-indol-1-ium-1-yl)butane-1-sulfonate], the uptake of probe (MDA-MB-468 cells [1]; MDA-MB-468 cells, dose and time series) is reported as “only weakly internalized at higher concentrations”, the “probe uptake in MMTV-neu mammary tumor” value ([2]; 25 nmol i.v., 6 hours, cryoslicing and histology) is reported as “No uptake was observed” and the “specific drug fluorescence in duct epithelium of tumor cells (histology)” value ([2]; FIG. 5, serial sections, DAPI/Cy5) is reported as “not in the 101-treated mouse”.
In the case of `CCOCCCNCc1ccc(C(=C\C=C2\N(CCCCS(=O)(=O)O)c3ccccc3C2(C)C)/C=C/C2=[N+](CCCCS(=O)(=O)[O-])c3ccccc3C2(C)C)cc1` [Compound 19, 4-(2-((1E,3Z)-5-((E)-3,3-dimethyl-1-(4-sulfobutyl)indolin-2-ylidene)-3-(4-(((3-ethoxypropyl)amino)methyl)phenyl)penta-1,3-dien-1-yl)-3,3-dimethyl-3H-indol-1-ium-1-yl)butane-1-sulfonate], the “puncta formation when applied to cells” value (MDA-MB-468 cells [3]) is reported as “does not form puncta”.
With `Cc1nn(-c2ccc(C(N)=O)c(NCCCOCCOCCOCCOCCOCCCNCc3ccc(C(=C\C=C4\N(CCCCS(=O)(=O)O)c5ccccc5C4(C)C)/C=C/C4=[N+](CCCCS(=O)(=O)[O-])c5ccccc5C4(C)C)cc3)c2)c2c1C(=O)CC(C)(C)C2` [Compound 100, 4-(2-((1E,3Z)-3-(4-(21-((2-carbamoyl-5-(3,6,6-trimethyl-4-oxo-4,5,6,7-tetrahydro-1H-indazol-1-yl)phenyl)amino)-6,9,12,15,18-pentaoxa-2-azahenicosyl)phenyl)-5-((Z)-3,3-dimethyl-1-(4-sulfobutyl)indolin-2-ylidene)penta-1,3-dien-1-yl)-3,3-dimethyl-3H-indol-1-ium-1-yl)butane-1-sulfonate] the cell permeability (MDA-MB-468 cells [1]) was “not cell permeable”, the clearance from vasculature (MDA-MB-468 flank tumors; 6 hour time point) was “cleared from the entire vasculature by the 6 hour time point” and the “probe related fluorescence in major organs (heart, lungs, liver, kidney, spleen, brain, skeletal muscle, stomach, skin, thyroid, prostate, fur)” value (MDA-MB-468 flank tumors; 6 hour time point) was “completely devoid of 100 related fluorescence”. For the same molecule, the “probe in gut wall or endothelial lining of upper intestine” value (MDA-MB-468 flank tumors; 6 hours post injection, 25 nmol tail vein) was “no evidence of 100 in the gut wall or endothelial lining”, the “uptake in skeletal structures, bone marrow, spinal and synovial fluid” value (MDA-MB-468 flank tumors; 6 hours, confirmed by MS analysis) was “No uptake” and the “uptake into lymph nodes” value (MDA-MB-468 flank tumors; SCID mouse, 6 hours) was “uptake of 100 into the lymph nodes”. For the same molecule, the “MS detection of parent ion in intestines” value ([4]; 6 hr post-drug injection) was “did not show the presence of the parent 100 ion”, the “concentration of intact parent molecule in tumor” value ([4]; MS analysis of flank tumor) was ~325 nM (w.w.) and the concentration at 6 h ([4]; SCID, mouse, other: injection, MS analysis of urine, 6 hours) was ~50 nM. The “MS detection of parent ion in eyes” value ([4]; mouse, in vivo) was “did not show evidence of the 100 parent ion” and the route of elimination ([4]; mouse, in vivo) was “primarily eliminated intact through the kidney”.

From US11261187B2, “Compounds and methods for targeting HSP90” (Duke University, priority 2016, dated 2022)
